In US11766470B2, “Manufacture, formulation and dosing of apraglutide” (VectivBio AG, priority 2020, dated 2023):
Square brackets hold non-standard residues; d marks the D form. Peptide text beside a SMILES is read from it. ξ: configuration not given here. Ile(3ξ) = CCC(C)[C@H](N)C(=O)O; Thr(3ξ) = CC(O)[C@H](N)C(=O)O; Nle = CCCC[C@H](N)C(=O)O

Assays:
[1] = cited from earlier work
[2] = MCP-MOD dose-response analysis of citrulline (week 6) in healthy volunteers (Example 7); design: species or system human; details: for MCP step, estimate of the difference: citrulline week 6
From the text: The MCP-MOD procedure was applied. This statistical methodology consisted of 2 steps: the multiple comparisons step and the modelling step. The first step of the procedure (MCP) is used to test for a significant dose response by assessing pre-specified candidate models. Once a dose response has been established, the second step (MOD) is used to estimate a dose-response curve and estimation of target doses of interest. Five candidate models were specified:
Linear model with maximum effect for the 10 mg dose
Log-linear model with maximum effect for the 10 mg dose
Dose that induces maximum effect (Emax) model with ED50 of 5 mg
Sigmoidal Emax model with ED50 of 1 mg and hill coefficient (HILL) of 2
Sigmoidal Emax model with ED50 of 5 mg and HILL of 5
A subset of the citrulline data was made with the average pre-value and day 35 to 42=week 6 data. The coefficients were implemented in the mixed model analysis of variance with fixed factors treatment, time and treatment by time, random factor subject, and the average prevalue as covariate. The average pre-value was calculated from all pre-values after screening and before dosing.
The following contrasts are calculated within the model:
For all pharmacodynamic endpoints (citrulline, Bristol stool scale and weight), the pre-value has been used as covariate. The average pre-value was calculated from all pre-values after screening and before dosing, except for the Bristol stool scale, where the screening value was also used to calculate the average baseline. The average pre-value of citrulline was also used as covariate in the MCP-MOD, except in the Sigmoid Emax model. This was addressed by subtracting the pre-value times the slope of the linear model of the MCP part from the values of week 6.

[3] = tested on: subjects with severe renal impairment; experiment: Safety in Phase I renal impairment trial (Example 10); assay type: in vivo, human; details: 5 mg single SC dose
Method: (§1) The following non-limiting example describes a Phase I clinical trial in which subjects with normal and impaired kidney function are treated with the apraglutide formulations of the present disclosure. This Phase I clinical trial investigates the pharmacokinetics and safety of a single subcutaneous dose of 5 mg apraglutide in subjects with varying degrees of renal function. The renal function is calculated by the estimated glomerular filtration rate (eGFR) according to the Chronic Kidney Disease Epidemiology (CKD-EPI) Creatinine Equation.
(§2) The trial is a two-stage, open label, multi-center, non-randomized, Phase I trial. In Part 1 of the trial, 8 subjects with severe renal impairment (Cohort 1) and 6 subjects with normal renal function (Cohort 2) will be administered a single dose 5 mg apraglutide of the present disclosure. In Part 2 of the trial, 8 subjects with moderate renal impairment (Cohort 3) and 8 subjects with mild renal impairment (Cohort 4) will be administered a single dose 5 mg apraglutide of the present disclosure. Subjects will be enrolled if the geometric mean ratio (GMR) of AUCinf or AUClast for the severe renal impairment group compared to the control group is ≥2.
The secondary endpoints to be evaluated, include, but are not limited to: • 1. […] Clinically significant change from baseline in recorded triplicate 12-lead ECG at days 14-28 • 10. […]

[4] = as compared with human GLP-2 and other GLP-2 analogues; cited from earlier work
[5] = Phase I trial, single subcutaneous 5 mg dose in subjects with severe renal impairment vs normal renal function (Example 10), pharmacokinetics; assay type: in vivo, human; details: for Geometric mean ratio for AUCinf, severe renal impairment vs normal renal function / Geometric mean ratio for Cmax, severe renal impairment vs normal renal function: single SC 5 mg; for Geometric Mean Ratio of AUCinf / Geometric Mean Ratio of Cmax: single subcutaneous dose 5 mg apraglutide, severe renal impairment (Cohort 1) vs normal renal function (Cohort 2)
Method: as §1, §2
Patient eligibility is assessed during a screening visit. The main inclusion criteria are: • 1. All Participants • a. Age between 18 and 75 years inclusive • b. Subjects who are willing and able to comply with the study procedures • c. Subjects able to understand and willing to sign the informed consent • d. Body mass index (BMI) of ≥17.5 to ≤40 kg/m2; and a total body weight of >50 kg (110 lb). • e. […] Sterilized or infertile or postmenopausal females. • f. […] Healthy participants • a. No clinically relevant abnormalities (medical history, vital signs, ECG, safety labs) • b. eGFR measured by CKD-EPI≥90 mL/min/1.73 m2 at two screening visits • c. […] Participants with impaired renal function • a. Severe renal impairment: eGFR<30 mL/min/1.73 m2, but not requiring hemodialysis • b. Moderate renal impairment: eGFR≥30 mL/min/1.73 m2 and <60 mL/min/1.73 m2 • c. Mild renal impairment: eGFR≥60 and <90 mL/min/1.73 m2
Primary endpoint efficacy assessments will be performed at 240 hours after single dose. […] Secondary endpoint efficacy assessments will be performed at 240 hours, 7 days, 14 days, and 28 days. Primary and secondary endpoints will be evaluated across all subjects.
The secondary endpoints to be evaluated, include, but are not limited to: • 1. Area under the concentration-time curve up to the last measurable concentration from time 0 to 7 days (AUC0-7days). Samples collected over 168 hours after single dose • 2. Time to maximum concentration (Tmax). Samples collected over 240 hours after single dose • 3. Terminal elimination rate constant. Samples collected over 240 hours after single dose • 4. Terminal elimination half-life. Samples collected over 240 hours after single dose • 5. Apparent clearance after extravascular administration (CL/F). Samples collected over 240 hours after single dose • 6. Apparent volume of distribution after extravascular administration (Vz/F). Samples collected over 240 hours after single dose • 7. Number of participants with adverse events or adverse events of special interest at days 14-28 • 8. Clinically significant change from baseline in vital signs at days 14-28 • 9. Clinically significant change from baseline in recorded triplicate 12-lead ECG at days 14-28 • 10. Number of participants who experience a clinically significant change from baseline in clinical laboratory assessments at days 14-28
The plasma concentration of apraglutide after administration of a single subcutaneous dose of 5 mg apraglutide was monitored over a period of 240 hours in both healthy subjects (Cohort 2) and subjects with severe CKD (Cohort 1) and is presented in FIG. 29.
Two outliers were identified (one in each Cohort) when analyzing the individual apraglutide plasma concentration curves. […]

[6] = human, sc, 5 mg
From the text: Plasma citrulline was used as a pharmacodynamic (“PD”) marker to describe the effect of apraglutide. Similar to the pharmacokinetic (“PK”) model development, the PK/PD model was developed for the healthy individuals from studies GLY-101-2015 and TA799-002 only. For development of the PD model, the PD observations were fitted together with the PK observations using the final PK model with its structure, residual error-, covariates- and random effects-models. The starting model was a turnover model where plasma citrulline was constantly synthesized and degraded with the synthesis rate ksyn and the degradation rate kdeg. Plasma apraglutide stimulated citrulline synthesis via a sigmoid Emax relationship with the baseline citrulline level R0, the half-maximal effect at the concentration EC50, the maximal effect Emax, and a Hill coefficient gamma. It was assumed that citrulline turnover was in steady state such that citrulline synthesis was determined solely by citrulline baseline and degradation. The population PK/PD of plasma apraglutide was established with data from two studies in healthy volunteers and two studies with SBS patients that tested doses between 2.5 and 50 mg SC.
The population PK/PD model was used to predict plasma apraglutide exposure and plasma citrulline trough concentration-time profiles with and without inter-individual variability for individuals with body weights between 40 and 120 kg receiving weekly doses of 2.5, 5, or 10 mg SC. […] Apraglutide exposure for body weights between 40 and 120 kg and apraglutide SC doses of 2.5, 5, or 10 mg was compared to post-hoc exposure estimates of SBS patients. Bracketing at a body weight of 50 kg between doses of 2.5 and 5 mg was simulated.
Plasma citrulline was described by a turnover model and maximal PD effect model.

[7] = cohort without the two outliers

Structure (SMILES): CCCC[C@H](NC(=O)[C@H](CCC(=O)O)NC(=O)[C@H](CC(=O)O)NC(=O)[C@H](CO)NC(=O)[C@H](Cc1ccccc1)NC(=O)[C@H](CO)NC(=O)CNC(=O)[C@H](CC(=O)O)NC(=O)CNC(=O)[C@@H](N)Cc1c[nH]cn1)C(=O)N[C@H](Cc1ccccc1)C(=O)N[C@H](C(=O)N[C@H](C(=O)N[C@@H](CC(C)C)C(=O)N[C@@H](CC(=O)O)C(=O)N[C@@H](CC(C)C)C(=O)N[C@@H](CC(C)C)C(=O)N[C@@H](C)C(=O)N[C@@H](C)C(=O)N[C@@H](CCCNC(=N)N)C(=O)N[C@@H](CC(=O)O)C(=O)N[C@@H](Cc1ccccc1)C(=O)N[C@H](C(=O)N[C@@H](CC(N)=O)C(=O)N[C@@H](Cc1c[nH]c2ccccc12)C(=O)N[C@@H](CC(C)C)C(=O)N[C@H](C(=O)N[C@@H](CCC(N)=O)C(=O)N[C@H](C(=O)N[C@@H](CCCCN)C(=O)N[C@H](C(=O)N[C@H](C(=O)N[C@@H](CC(=O)O)C(N)=O)C(C)O)C(C)CC)C(C)O)C(C)CC)C(C)CC)C(C)CC)C(C)O (stereo partly drawn) [apraglutide, L-histidyl-glycyl-L-aspartyl-glycyl-L-seryl-L-phenylalanyl-L-seryl-L-aspartyl-L-glutamyl-L-norleucyl-D-phenylalanyl-L-threonyl-Lisoleucyl-L-leucyl-L-aspartyl-L-leucyl-L-leucyl-L-alanyl-L-alanyl-L-arginyl-L-aspartyl-L-phenylalanyl-L-isoleucyl-L-asparaginyl-Ltryptophanyl-L-leucyl-L-isoleucyl-L-glutaminyl-L-threonyl-L-lysyl-L-isoleucyl-L-threonyl-Laspartic acid amide] (H-HGDGSFSDE[Nle][dF][Thr(3ξ)][Ile(3ξ)]LDLLAARDF[Ile(3ξ)]NWL[Ile(3ξ)]Q[Thr(3ξ)]K[Ile(3ξ)][Thr(3ξ)]D-NH2)
- Intestinotrophic effect in animal models, in words [1]: promoted increase in intestinal length and weight, villus height and crypt depth
- Predicted citrulline change from placebo effect for dose of 1 mg ([2]; Emax model): 0.8535 µg/mL
- Predicted citrulline change from placebo effect for dose of 5 mg ([2]; Emax model): 2.2442 µg/mL
- Predicted citrulline change from placebo effect for dose of 10 mg ([2]; Emax model): 2.8182 µg/mL
- Predicted dose for citrulline change from placebo of 1 μg/mL ([2]; Emax model): 1.2333 mg
- Predicted dose for citrulline change from placebo of 2 μg/mL ([2]; Emax model): 3.8471 mg
- Predicted dose for citrulline change from placebo of 3 μg/mL ([2]; Emax model): 13.1053 mg
- Predicted citrulline change from placebo effect for dose of 1 mg ([2]; Log-linear model): 0.8712 µg/mL
- Predicted citrulline change from placebo effect for dose of 5 mg ([2]; Log-linear model): 2.1652 µg/mL
- Predicted citrulline change from placebo effect for dose of 10 mg ([2]; Log-linear model): 2.8604 µg/mL
- Predicted dose for citrulline change from placebo of 1 μg/mL ([2]; Log-linear model): 1.2249 mg
- Predicted dose for citrulline change from placebo of 2 μg/mL ([2]; Log-linear model): 4.2011 mg
- Predicted dose for citrulline change from placebo of 3 μg/mL ([2]; Log-linear model): 11.4325 mg
- Predicted citrulline change from placebo effect for dose of 1 mg ([2]; Sigmoid Emax model): 0.7125 µg/mL
- Predicted citrulline change from placebo effect for dose of 5 mg ([2]; Sigmoid Emax model): 2.3327 µg/mL
- Predicted citrulline change from placebo effect for dose of 10 mg ([2]; Sigmoid Emax model): 2.6946 µg/mL
- Predicted dose for citrulline change from placebo of 1 μg/mL ([2]; Sigmoid Emax model): 1.3606 mg
- Predicted dose for citrulline change from placebo of 2 μg/mL ([2]; Sigmoid Emax model): 3.4042 mg
- Predicted dose for citrulline change from placebo of 2.5 μg/mL ([2]; Sigmoid Emax model): 6.4619 mg
- MCP step, estimate of the difference ([2]; candidate model Emax with ED50 = 5 mg): 2.2150
- MCP step, estimate of the difference ([2]; candidate model Linear): 2.0781
- MCP step, estimate of the difference ([2]; candidate model Log-linear): 2.2125
- MCP step, estimate of the difference ([2]; candidate model Sigmoid Emax with ED50 = 1 mg and H = 2): 2.1663
- MCP step, estimate of the difference ([2]; candidate model Sigmoid Emax with ED50 = 5 mg and H = 5): 2.0713
- Safety in patients with severe CKD, in words [3]: safe to dose the patients with severe CKD with apraglutide 5 mg, without the risk of overdose
- half-life [4]: at least 30 hours
- Geometric mean ratio for AUCinf, severe renal impairment vs normal renal function ([5]; entire subject population): 0.614
- Geometric mean ratio for Cmax, severe renal impairment vs normal renal function ([5]; entire subject population): 0.572
- Geometric mean ratio for AUCinf, severe renal impairment vs normal renal function ([5]; outlier subjects removed): 0.849
- Geometric mean ratio for Cmax, severe renal impairment vs normal renal function ([5]; outlier subjects removed): 0.774
- Geometric Mean Ratio of AUCinf [5, 7]: 0.849
- Geometric Mean Ratio of Cmax [5, 7]: 0.774
- Geometric Mean Ratio of AUCinf ([5]; whole cohort): 0.614
- Geometric Mean Ratio of Cmax ([5]; whole cohort): 0.572
- Time of peak plasma concentration (Cmax), population PK/PD model estimate [6]: 1.39 days
